Data on three compounds can be found in ChEMBL document CHEMBL1151717, “In vivo active aldosterone synthase inhibitors with improved selectivity: lead optimization providing a series of pyridine substituted 3,4-dihydro-1H-quinolin-2-one derivatives” (J Med Chem, 2008).

One data set addresses T1, CYP1A2 (Homo sapiens, UniProt P05177).
T1 sequence (P05177 whole entry): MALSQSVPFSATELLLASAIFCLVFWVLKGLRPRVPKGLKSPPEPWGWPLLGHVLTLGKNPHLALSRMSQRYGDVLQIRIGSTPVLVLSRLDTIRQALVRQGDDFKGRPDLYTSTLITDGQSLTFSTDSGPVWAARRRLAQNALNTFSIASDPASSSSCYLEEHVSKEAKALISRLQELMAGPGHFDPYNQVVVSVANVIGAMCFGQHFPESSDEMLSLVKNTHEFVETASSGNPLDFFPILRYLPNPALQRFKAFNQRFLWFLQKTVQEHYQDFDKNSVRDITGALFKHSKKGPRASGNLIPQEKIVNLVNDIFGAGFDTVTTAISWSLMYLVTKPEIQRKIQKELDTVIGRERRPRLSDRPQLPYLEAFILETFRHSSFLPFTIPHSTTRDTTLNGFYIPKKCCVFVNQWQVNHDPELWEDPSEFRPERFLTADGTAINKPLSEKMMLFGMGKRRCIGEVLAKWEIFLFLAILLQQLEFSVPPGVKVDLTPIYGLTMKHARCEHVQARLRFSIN
Nature of the data set: Inhibition of human recombinant CYP1A2 expressed in baculovirus-infected insect microsomes at 2 uM. It counts as ADME, Microsome.

Another data set has as its target T2, CYP19 (aromatase) (Homo sapiens, UniProt P11511).
T2 sequence (P11511 whole entry): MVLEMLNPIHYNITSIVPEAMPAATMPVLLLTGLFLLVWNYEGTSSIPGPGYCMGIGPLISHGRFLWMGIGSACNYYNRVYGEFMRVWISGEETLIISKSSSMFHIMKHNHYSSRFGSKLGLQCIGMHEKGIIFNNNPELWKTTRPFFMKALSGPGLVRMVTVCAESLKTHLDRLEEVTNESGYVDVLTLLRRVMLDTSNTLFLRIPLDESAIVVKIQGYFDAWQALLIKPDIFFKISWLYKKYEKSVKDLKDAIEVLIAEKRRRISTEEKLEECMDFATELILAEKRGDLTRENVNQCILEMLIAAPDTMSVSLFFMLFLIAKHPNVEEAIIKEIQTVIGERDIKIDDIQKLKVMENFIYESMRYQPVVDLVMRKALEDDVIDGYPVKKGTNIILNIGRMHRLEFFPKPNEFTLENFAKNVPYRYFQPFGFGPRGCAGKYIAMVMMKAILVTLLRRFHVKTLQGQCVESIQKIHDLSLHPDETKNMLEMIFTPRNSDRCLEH
Nature of the data set: Inhibition of human placental CYP19 at 500 nM. It counts as functional.

Data set [1] has as its target T3, Cytochrome P450 11B2, mitochondrial (Homo sapiens, UniProt P19099).
T3 sequence (P19099 whole entry): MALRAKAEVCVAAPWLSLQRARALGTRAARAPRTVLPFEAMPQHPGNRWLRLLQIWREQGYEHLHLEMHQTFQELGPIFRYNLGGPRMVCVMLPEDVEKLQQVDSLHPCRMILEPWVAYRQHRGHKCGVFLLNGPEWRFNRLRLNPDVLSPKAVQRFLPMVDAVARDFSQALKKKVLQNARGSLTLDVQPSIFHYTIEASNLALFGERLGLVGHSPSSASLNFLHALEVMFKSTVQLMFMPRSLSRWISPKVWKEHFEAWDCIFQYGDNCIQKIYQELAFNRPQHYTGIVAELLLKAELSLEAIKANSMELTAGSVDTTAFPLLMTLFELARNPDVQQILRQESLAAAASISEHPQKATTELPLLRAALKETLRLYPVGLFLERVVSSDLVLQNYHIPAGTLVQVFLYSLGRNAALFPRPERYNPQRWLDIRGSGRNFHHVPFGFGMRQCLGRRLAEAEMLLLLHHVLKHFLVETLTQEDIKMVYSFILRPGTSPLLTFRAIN

A further data set has as its target T4, Cytochrome P450 2B6 (Homo sapiens, UniProt P20813).
T4 sequence (P20813 whole entry): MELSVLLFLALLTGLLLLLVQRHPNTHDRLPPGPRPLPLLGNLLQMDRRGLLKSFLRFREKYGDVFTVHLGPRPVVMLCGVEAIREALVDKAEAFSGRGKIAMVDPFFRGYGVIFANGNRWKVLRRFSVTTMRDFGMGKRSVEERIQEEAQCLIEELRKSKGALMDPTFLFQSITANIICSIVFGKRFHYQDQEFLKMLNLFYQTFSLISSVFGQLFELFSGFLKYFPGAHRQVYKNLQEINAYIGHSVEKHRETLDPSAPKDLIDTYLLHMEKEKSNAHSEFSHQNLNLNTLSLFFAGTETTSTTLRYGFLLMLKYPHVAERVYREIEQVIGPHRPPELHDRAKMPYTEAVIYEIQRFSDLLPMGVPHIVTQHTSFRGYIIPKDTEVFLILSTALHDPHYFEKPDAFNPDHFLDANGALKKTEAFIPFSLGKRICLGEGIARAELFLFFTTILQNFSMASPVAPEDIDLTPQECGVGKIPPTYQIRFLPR
The experiment in a line: Inhibition of human recombinant CYP2B6 expressed in baculovirus-infected insect microsomes. The class given is ADME, Microsome.

The next data set concerns the target T5, Cytochrome P450 1A2 (Homo sapiens, UniProt P05177).
T5 sequence (P05177 whole entry): T1 sequence (P05177 whole entry)

The next data set concerns the target T6, CYP17 (Homo sapiens, UniProt P05093).
T6 sequence (P05093 whole entry): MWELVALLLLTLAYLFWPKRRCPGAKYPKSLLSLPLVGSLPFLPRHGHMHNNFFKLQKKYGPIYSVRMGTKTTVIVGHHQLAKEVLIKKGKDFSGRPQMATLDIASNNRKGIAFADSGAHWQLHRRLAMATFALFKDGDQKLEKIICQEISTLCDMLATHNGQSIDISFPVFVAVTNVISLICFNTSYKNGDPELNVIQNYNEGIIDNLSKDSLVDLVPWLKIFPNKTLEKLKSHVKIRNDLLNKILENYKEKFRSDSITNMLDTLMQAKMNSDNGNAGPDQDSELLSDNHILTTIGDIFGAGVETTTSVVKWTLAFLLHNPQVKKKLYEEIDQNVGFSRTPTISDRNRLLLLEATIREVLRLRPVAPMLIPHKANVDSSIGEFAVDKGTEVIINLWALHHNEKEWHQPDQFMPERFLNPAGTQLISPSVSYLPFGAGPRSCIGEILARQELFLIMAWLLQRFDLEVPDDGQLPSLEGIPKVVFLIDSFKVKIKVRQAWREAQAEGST
The experiment in a line: in vitro. The conditions noted are these: human CYP17 expressed in Escherichia coli.

For a further data set, the target named is Cytochrome P450 2C9 (Homo sapiens, UniProt P11712). Nature of the data set: Inhibition of human recombinant CYP2C9 expressed in baculovirus-infected insect microsomes. It counts as ADME, Microsome.
Cytochrome P450 2C9, sequence (P11712 whole entry): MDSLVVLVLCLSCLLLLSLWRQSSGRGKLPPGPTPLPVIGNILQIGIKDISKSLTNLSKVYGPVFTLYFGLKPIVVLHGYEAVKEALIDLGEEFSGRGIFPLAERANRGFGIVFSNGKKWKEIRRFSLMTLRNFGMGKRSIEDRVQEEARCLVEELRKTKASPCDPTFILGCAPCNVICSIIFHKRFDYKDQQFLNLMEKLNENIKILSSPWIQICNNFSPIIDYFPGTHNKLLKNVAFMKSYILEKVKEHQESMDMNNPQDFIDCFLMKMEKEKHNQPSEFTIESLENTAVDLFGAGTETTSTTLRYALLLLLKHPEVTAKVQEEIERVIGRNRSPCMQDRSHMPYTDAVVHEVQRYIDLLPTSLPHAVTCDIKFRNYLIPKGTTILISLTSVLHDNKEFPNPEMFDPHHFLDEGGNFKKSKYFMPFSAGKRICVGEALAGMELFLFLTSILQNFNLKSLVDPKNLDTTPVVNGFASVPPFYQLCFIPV
In a further data set the target is Cytochrome P450 3A4 (Homo sapiens, UniProt P08684). Nature of the data set: Inhibition of human recombinant CYP3A4 expressed in baculovirus-infected insect microsomes. The class given is ADME, Microsome.
Cytochrome P450 3A4, sequence (P08684 whole entry): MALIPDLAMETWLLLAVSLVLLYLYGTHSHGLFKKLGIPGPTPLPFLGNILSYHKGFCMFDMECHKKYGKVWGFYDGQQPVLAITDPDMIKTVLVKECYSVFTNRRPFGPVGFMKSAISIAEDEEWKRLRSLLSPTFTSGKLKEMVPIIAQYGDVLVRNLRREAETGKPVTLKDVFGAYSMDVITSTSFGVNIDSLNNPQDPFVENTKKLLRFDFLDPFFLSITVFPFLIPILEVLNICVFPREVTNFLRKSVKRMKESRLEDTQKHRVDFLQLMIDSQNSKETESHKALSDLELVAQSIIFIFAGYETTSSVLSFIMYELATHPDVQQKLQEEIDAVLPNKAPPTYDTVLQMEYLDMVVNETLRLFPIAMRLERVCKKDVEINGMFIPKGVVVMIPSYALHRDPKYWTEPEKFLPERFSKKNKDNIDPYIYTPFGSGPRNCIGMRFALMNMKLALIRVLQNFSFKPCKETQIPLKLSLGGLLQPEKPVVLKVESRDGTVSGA

Where only a bound is given, the exact number is not on record here.

Description for CYP17: Inhibition of human CYP17 expressed in Escherichia coli at 2.5 uM

In general, inhibition refers to the percentage by which the read-out fell short of the control. Broadly, the IC50 is the midpoint of a concentration-inhibition curve. On to `O=C1CCc2cc(-c3cncc4ccccc34)ccc2N1`, for which the inhibition at 2 µM on CYP1A2 was under 5%. In addition, on CYP19 (aromatase), the inhibition at 0.5 µM was under 5%. The IC50 is 0.0002 µM in data set [1]; under 100 µM on Cytochrome P450 2B6; over 150 µM on Cytochrome P450 1A2; 2.9 µM on Cytochrome P450 2C9; under 50 µM at Cytochrome P450 3A4. At CYP17, this compound showed an inhibition at 2.5 µM of 22%.

For `COc1cncc(-c2ccc3c(c2)CCC(=O)C3)c1`, the inhibition at 2 µM on CYP1A2 is 57%. At 0.5 µM the inhibition at CYP19 (aromatase) was 58%. Moreover, the IC50 in data set [1] was 0.0018 µM; on Cytochrome P450 2B6 it was under 50 µM; at Cytochrome P450 1A2, 1.56 µM; on Cytochrome P450 2C9 it was 12.9 µM; at Cytochrome P450 3A4, 3.8 µM. The compound also yielded an inhibition at 2.5 µM against CYP17 of 21%.

As to `O=C1CCc2cc(-c3cccnc3)ccc2C1`, at CYP1A2, the inhibition at 2 µM is 60%. Testing at 0.5 µM on CYP19 (aromatase) gave an inhibition of 31%. Besides, the IC50 in data set [1] was 0.0078 µM; on Cytochrome P450 2B6 it was under 50 µM; on Cytochrome P450 1A2, 1.55 µM; at Cytochrome P450 2C9 it was 28.3 µM; at Cytochrome P450 3A4, 6.21 µM. This compound returned an inhibition at 2.5 µM on CYP17 of 20%.
